# Reference: PMC6923382, “Small molecules that inhibit TNF signalling by stabilising an asymmetric form of the trimer” (Nature Communications, 2019)
# “Also recorded” adds a separate entry of the source.
# Tests used:
# [1] = tested on: TNFR1 extracellular domain and control proteins; assay: Biacore SPR binding to control surfaces; conditions: capture antibody plus TNFR1, capture antibody
# Excerpt: (§1) BIA (Biomolecular Interaction Analysis) uses SPR to measure the binding of compounds to a protein immobilised on a chip surface. For this purpose a Biacore A100/4000 (GE Healthcare) was used. A CM5 sensor was immobilised via amine coupling on flow cell 1 with human Fc antibody domain (10k response units; kRU) and TNFR-Fc captured (2.5 kRU), flow cell 2 TNF (11 kRU), flow cell 3 was left blank (for non-specific binding), flow cell 4 TNFR-Fc (10 kRU), and flow cell 5 goat anti-human Fc 16 kRU). The sensor surface was then equilibrated in HBS-P (10 mM HEPES pH 7.4, 0.15 M NaCl, 0.005% Surfactant P20, BIAcore, GE Healthcare) with 5% DMSO for at least 5 h. Compounds were diluted from 100 mM stocks into DMSO matched buffer and then flowed over the immobilised flow cells at a concentration of 250 µM at the maximum flow rate of 30 μL/min. Background subtraction binding curves were analysed using the Biacore A100 BIA evaluation software version 1.1 following standard procedures.
# [2] = target: T1, TNF (Homo sapiens, UniProt P01375); assay: Biacore SPR fragment binding to immobilised TNF; design: Human TNF (CID2043, UniProt P01375 residues 77–233); 6XHis-Smt3 (N, cleaved yes); host or cells: E. coli TOP10; conditions: SPR fragment screen; concentration-dependent response
# Excerpt: as §1
# Target sequence in this assay (P01375 77-233): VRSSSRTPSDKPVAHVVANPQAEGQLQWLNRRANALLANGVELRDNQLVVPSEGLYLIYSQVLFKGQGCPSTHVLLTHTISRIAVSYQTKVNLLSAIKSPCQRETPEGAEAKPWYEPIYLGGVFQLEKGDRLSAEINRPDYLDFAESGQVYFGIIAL
# [3] = target: T1, TNF; assay: Biacore binding with and without non-ionic detergent; design: stabilise an asymmetrical form of the soluble TNF trimer; conditions: 0.01% v/v Triton X-100 and 0.025% v/v Tween-80; Biacore T200
# Experimental: Experiments to show any effect of addition of non-ionic detergent were performed on a Biacore, with human TNF on the solid phase and compounds in solution phase in the presence and absence of 0.01% v/v Triton X-100 and 0.025% v/v Tween-80.
# Three Biacore T200s were treated with sodium hypochlorite to remove any traces of detergent. Each machine was equilibrated in either HBS with no detergent (control), HBS:
# Tween-P80 (0.025% v/v) or HBS: Triton X-100 (0.01% v/v). Human TNF was tethered to ~ 2000 RU before equilibration in the equivalent control or detergent buffers plus 1% DMSO. […]
# were fitted to a BIAevaluation T200 1:1 algorithm and the fitted data shown. […]
# Target sequence in this assay (P01375 77-233 limits assumed): as the sequence (P01375 77-233) above
# [4] = target: T1, TNF; assay: Biacore kinetics of binding; design: Human TNF (CID2043, UniProt P01375 residues 77–233); 6XHis-Smt3 (N, cleaved yes); host or cells: E. coli TOP10; conditions: SPR, multicycle, Biacore T100
# Experimental: Surface plasmon resonance using a Biacore T100/T200 was used to measure the association rate constant (ka), the dissociation rate constant (kd) and the affinity (KD) of compounds. TNF (VCID 2043 Beryllium) was immobilised to approximately 5 kRU as described above and equilibrated for at least 5 h in HBS P + buffer with 5% DMSO. UCB-6876 was serially diluted from 187.5 µM, flowing over the immobilised TNF at 50 µL/min for 3 min before allowing full dissociation under flow for at least 6 min. […] […] The compounds were allowed to dissociate for 2 h under flow.
# Target sequence in this assay (P01375 77-233): as above
# [5] = target: T1, TNF; assay: Mass spectrometry monomer exchange; type: biochemical; design: stabilise an asymmetrical form of the soluble TNF trimer; conditions: human TNF pre-incubated with compound, mixed 1:1 with mouse TNF
# Experimental: Mouse and human TNF protein were made up to a concentration of 2 mg/mL (20 mM ammonium acetate, pH 7.4) and desalted and buffer-exchanged using Zeba columns. The protein was then diluted to 20 μM in ammonium acetate buffer. An aliquot of each was mixed 1:1 and analysed at various time points. Human TNF was incubated (1:1, v/v) with compound (20 μΜ), 4% DMSO in 20 mM ammonium acetate) and mixed with mouse TNF (1:1) and tested at various time points using an Advion Nanomate (for sample introduction by nanospray) and ThermoFisher Exactive Plus EMR Mass Spectrometer. The following settings were utilised on the mass spectrometer: scan range 1000 to 8000 m/z; spray voltage 1.5 kV; capillary temperature 150 °C; S-lens RF 200; source DC offset 25 V, injection flatapole 7 V; inter flatapole 6 V; bent flatapole DC 6 V; EMR mode on. Data were processed using ThermoFisher Protein Deconvolution 3.0.
# Target sequence in this assay (P01375 77-233 limits assumed): as the sequence (P01375 77-233) above
smiles,measurement,setting,value
Cc1ccc(C)c(Cn2c(CO)nc3ccccc32)c1 [UCB-6876],binding to TNFR1 and control proteins (selectivity),[1],selectivity over the TNFR1 extracellular domain and control proteins; also recorded: not to control proteins
same,binding to immobilised TNF,[2],bound to TNF; also recorded: specifically binds to immobilised TNF
same,effect of non-ionic detergents on binding to human TNF,[3],does not alter the binding
same,Kd,[4]; read-out: KD (kd/ka),22 µM
same,kon,[4]; read-out: association rate constant ka,923 M⁻¹ s⁻¹
same,koff,[4]; read-out: dissociation rate constant kd,0.02 s⁻¹
same,exchange of mouse and human TNF monomers,[5],blocks the exchange of mouse and human monomers
